Data from patent publication US20020026053A1, “Novel 3-(substituted) -2- indolinones compounds and use thereof as inhibitors of protein kinase activity” (priority 1997, published 2002).

What was measured:
PDGF-R = PDGF-R Assay (cellular ELISA, U1242 cells); assay type: cell-based; parameters: concentration or dose not given beside the values; settings: protocol P.119
How it was run: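 U1242 cells seeded in 0.5% serum, serum-starved, then exposed to compound for 2 hr at 37°C before 5–10 min ligand stimulation and lysis in HNTG. Lysate captured on receptor-antibody-coated plates; phosphotyrosine detected with polyclonal anti-pTyr, goat anti-rabbit IgG and ABTS/H2O2, A410 (ref 630 nm), versus untreated cells.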

EGFR = biological target: T1, EGFR (Homo sapiens, UniProt P00533); assay: Biochemical EGFR Assay; parameters: concentration or dose not given beside the values; settings: protocol P.167
T1 construct: endogenous in cells; host or cells: A431 cells (lysate, captured with SUMO1 anti-EGFR antibody)
How it was run: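 EGFR from A431 lysate was captured on anti-EGFR-coated wells and preincubated 30 min with compound (diluted 1:10 in TBS) at room temperature. After ATP/MnCl2 phosphorylation for 5 min, the reaction was stopped with EDTA. Phosphotyrosine was detected by ELISA (anti-phosphotyrosine, peroxidase conjugate, ABTS) at 410 nm.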

T1 sequence (P00533 25-1210): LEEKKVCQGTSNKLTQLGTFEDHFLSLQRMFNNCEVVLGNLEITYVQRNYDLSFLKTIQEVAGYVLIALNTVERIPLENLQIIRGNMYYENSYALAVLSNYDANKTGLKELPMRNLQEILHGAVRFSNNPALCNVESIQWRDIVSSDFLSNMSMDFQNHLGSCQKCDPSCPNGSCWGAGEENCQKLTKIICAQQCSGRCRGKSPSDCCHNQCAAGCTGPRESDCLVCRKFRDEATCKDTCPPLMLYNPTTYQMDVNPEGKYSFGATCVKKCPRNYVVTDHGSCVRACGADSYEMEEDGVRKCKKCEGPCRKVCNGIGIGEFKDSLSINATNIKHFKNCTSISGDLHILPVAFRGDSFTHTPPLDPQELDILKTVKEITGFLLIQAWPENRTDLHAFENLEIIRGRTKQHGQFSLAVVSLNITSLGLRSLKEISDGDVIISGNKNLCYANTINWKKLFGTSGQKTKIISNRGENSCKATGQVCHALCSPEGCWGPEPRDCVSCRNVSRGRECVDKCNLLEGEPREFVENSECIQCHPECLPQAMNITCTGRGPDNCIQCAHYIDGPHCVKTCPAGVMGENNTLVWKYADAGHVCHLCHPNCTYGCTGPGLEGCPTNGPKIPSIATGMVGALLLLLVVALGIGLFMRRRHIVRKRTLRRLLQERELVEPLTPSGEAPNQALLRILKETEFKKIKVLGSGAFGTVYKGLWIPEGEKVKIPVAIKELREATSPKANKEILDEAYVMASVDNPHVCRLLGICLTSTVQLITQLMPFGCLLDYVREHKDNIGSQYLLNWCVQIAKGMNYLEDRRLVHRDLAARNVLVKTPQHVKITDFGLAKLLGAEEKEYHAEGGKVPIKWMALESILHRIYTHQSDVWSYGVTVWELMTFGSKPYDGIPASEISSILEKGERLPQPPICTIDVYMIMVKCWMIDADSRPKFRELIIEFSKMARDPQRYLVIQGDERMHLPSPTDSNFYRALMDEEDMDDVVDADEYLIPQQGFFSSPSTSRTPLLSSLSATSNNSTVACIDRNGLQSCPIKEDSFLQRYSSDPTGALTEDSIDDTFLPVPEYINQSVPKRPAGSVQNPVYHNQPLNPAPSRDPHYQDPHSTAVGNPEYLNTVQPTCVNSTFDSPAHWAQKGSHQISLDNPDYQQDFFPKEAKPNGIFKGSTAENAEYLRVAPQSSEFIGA

CCOc1ccc(C=C2C(=O)Nc3ccc(S(=O)(=O)Nc4ccc(C(F)(F)F)cc4)cc32)cc1 [10737/E02]
PDGF Kinase % Inhibition (P.119) (PDGF-R): 12.9% | Biochem EGFR % Inhibition (P.167) (EGFR): 6.7%

Cc1ccc(C=C2C(=O)Nc3ccc(S(=O)(=O)Nc4ccc(C(F)(F)F)cc4)cc32)c(C)c1 [10737/E03]
PDGF Kinase % Inhibition (P.119) (PDGF-R): 39.2% | Biochem EGFR % Inhibition (P.167) (EGFR): −4.5%

O=C1Nc2ccc(S(=O)(=O)Nc3ccc(C(F)(F)F)cc3)cc2C1=Cc1cc(F)ccc1F [10737/E04]
PDGF Kinase % Inhibition (P.119) (PDGF-R): 29.7% | Biochem EGFR % Inhibition (P.167) (EGFR): 15.4%

O=C1Nc2ccc(S(=O)(=O)Nc3ccc(C(F)(F)F)cc3)cc2C1=Cc1cccc(F)c1F [10737/E05]
PDGF Kinase % Inhibition (P.119) (PDGF-R): 33.3% | Biochem EGFR % Inhibition (P.167) (EGFR): −8.6%

COc1ccc(C=C2C(=O)Nc3ccc(S(=O)(=O)Nc4ccc(C(F)(F)F)cc4)cc32)cc1F [10737/E06]
PDGF Kinase % Inhibition (P.119) (PDGF-R): 26.5% | Biochem EGFR % Inhibition (P.167) (EGFR): −14.1%

Cc1ccc(C)c(C=C2C(=O)Nc3ccc(S(=O)(=O)Nc4ccc(C(F)(F)F)cc4)cc32)c1 [10737/E07]
PDGF Kinase % Inhibition (P.119) (PDGF-R): 28.1% | Biochem EGFR % Inhibition (P.167) (EGFR): −12.3%

O=C1Nc2ccc(S(=O)(=O)Nc3ccc(C(F)(F)F)cc3)cc2C1=Cc1ccc2ccccc2c1 [10737/E08]
PDGF Kinase % Inhibition (P.119) (PDGF-R): 35.6% | Biochem EGFR % Inhibition (P.167) (EGFR): −7.8%

O=C1Nc2ccc(S(=O)(=O)Nc3ccc(C(F)(F)F)cc3)cc2C1=Cc1ccc(Oc2ccccc2)cc1 [10737/E09]
PDGF Kinase % Inhibition (P.119) (PDGF-R): 25.7% | Biochem EGFR % Inhibition (P.167) (EGFR): −0.7%

CC(C)(C)c1ccc(Oc2cccc(C=C3C(=O)Nc4ccc(S(=O)(=O)Nc5ccc(C(F)(F)F)cc5)cc43)c2)cc1 [10737/E10]
PDGF Kinase % Inhibition (P.119) (PDGF-R): 30.9% | Biochem EGFR % Inhibition (P.167) (EGFR): −4.2%

O=C1Nc2ccc(S(=O)(=O)Nc3ccc(C(F)(F)F)cc3)cc2C1=Cc1cccc(Oc2cccc(C(F)(F)F)c2)c1 [10737/E11]
PDGF Kinase % Inhibition (P.119) (PDGF-R): 38.0% | Biochem EGFR % Inhibition (P.167) (EGFR): −33.4%

CCOc1ccc(C=C2C(=O)Nc3ccc(S(=O)(=O)N4CCOCC4)cc32)cc1 [10737/F02]
PDGF Kinase % Inhibition (P.119) (PDGF-R): 9.0% | Biochem EGFR % Inhibition (P.167) (EGFR): 21.4%

Cc1ccc(C=C2C(=O)Nc3ccc(S(=O)(=O)N4CCOCC4)cc32)c(C)c1 [10737/F03]
PDGF Kinase % Inhibition (P.119) (PDGF-R): 7.8% | Biochem EGFR % Inhibition (P.167) (EGFR): −3.1%

O=C1Nc2ccc(S(=O)(=O)N3CCOCC3)cc2C1=Cc1cc(F)ccc1F [10737/F04]
PDGF Kinase % Inhibition (P.119) (PDGF-R): 3.8% | Biochem EGFR % Inhibition (P.167) (EGFR): −23.3%

O=C1Nc2ccc(S(=O)(=O)N3CCOCC3)cc2C1=Cc1cccc(F)c1F [10737/F05]
PDGF Kinase % Inhibition (P.119) (PDGF-R): 1.0% | Biochem EGFR % Inhibition (P.167) (EGFR): −24.0%

COc1ccc(C=C2C(=O)Nc3ccc(S(=O)(=O)N4CCOCC4)cc32)cc1F [10737/F06]
PDGF Kinase % Inhibition (P.119) (PDGF-R): 11.3% | Biochem EGFR % Inhibition (P.167) (EGFR): −13.7%

Cc1ccc(C)c(C=C2C(=O)Nc3ccc(S(=O)(=O)N4CCOCC4)cc32)c1 [10737/F07]
PDGF Kinase % Inhibition (P.119) (PDGF-R): 12.9% | Biochem EGFR % Inhibition (P.167) (EGFR): −25.5%

O=C1Nc2ccc(S(=O)(=O)N3CCOCC3)cc2C1=Cc1ccc2ccccc2c1 [10737/F08]
PDGF Kinase % Inhibition (P.119) (PDGF-R): 9.8% | Biochem EGFR % Inhibition (P.167) (EGFR): 28.3%

O=C1Nc2ccc(S(=O)(=O)N3CCOCC3)cc2C1=Cc1ccc(Oc2ccccc2)cc1 [10737/F09]
PDGF Kinase % Inhibition (P.119) (PDGF-R): 9.8% | Biochem EGFR % Inhibition (P.167) (EGFR): 23.5%

CC(C)(C)c1ccc(Oc2cccc(C=C3C(=O)Nc4ccc(S(=O)(=O)N5CCOCC5)cc43)c2)cc1 [10737/F10]
PDGF Kinase % Inhibition (P.119) (PDGF-R): 11.0% | Biochem EGFR % Inhibition (P.167) (EGFR): 14.6%

O=C1Nc2ccc(S(=O)(=O)N3CCOCC3)cc2C1=Cc1cccc(Oc2cccc(C(F)(F)F)c2)c1 [10737/F11]
PDGF Kinase % Inhibition (P.119) (PDGF-R): 16.5% | Biochem EGFR % Inhibition (P.167) (EGFR): −0.7%

CCOc1ccc(C=C2C(=O)Nc3ccc(CCCl)cc32)cc1 [10737/G02]
PDGF Kinase % Inhibition (P.119) (PDGF-R): −5.8% | Biochem EGFR % Inhibition (P.167) (EGFR): 12.4%

Cc1ccc(C=C2C(=O)Nc3ccc(CCCl)cc32)c(C)c1 [10737/G03]
PDGF Kinase % Inhibition (P.119) (PDGF-R): 21.7% | Biochem EGFR % Inhibition (P.167) (EGFR): −0.5%

O=C1Nc2ccc(CCCl)cc2C1=Cc1cc(F)ccc1F [10737/G04]
PDGF Kinase % Inhibition (P.119) (PDGF-R): 12.1% | Biochem EGFR % Inhibition (P.167) (EGFR): −19.3%

O=C1Nc2ccc(CCCl)cc2C1=Cc1cccc(F)c1F [10737/G05]
PDGF Kinase % Inhibition (P.119) (PDGF-R): 16.1% | Biochem EGFR % Inhibition (P.167) (EGFR): −41.4%

COc1ccc(C=C2C(=O)Nc3ccc(CCCl)cc32)cc1F [10737/G06]
PDGF Kinase % Inhibition (P.119) (PDGF-R): −10.2% | Biochem EGFR % Inhibition (P.167) (EGFR): −43.4%

Cc1ccc(C)c(C=C2C(=O)Nc3ccc(CCCl)cc32)c1 [10737/G07]
PDGF Kinase % Inhibition (P.119) (PDGF-R): 24.1% | Biochem EGFR % Inhibition (P.167) (EGFR): −25.0%

O=C1Nc2ccc(CCCl)cc2C1=Cc1ccc2ccccc2c1 [10737/G08]
PDGF Kinase % Inhibition (P.119) (PDGF-R): 13.7% | Biochem EGFR % Inhibition (P.167) (EGFR): 30.8%

O=C1Nc2ccc(CCCl)cc2C1=Cc1ccc(Oc2ccccc2)cc1 [10737/G09]
PDGF Kinase % Inhibition (P.119) (PDGF-R): 8.2% | Biochem EGFR % Inhibition (P.167) (EGFR): 23.6%

CC(C)(C)c1ccc(Oc2cccc(C=C3C(=O)Nc4ccc(CCCl)cc43)c2)cc1 [10737/G10]
PDGF Kinase % Inhibition (P.119) (PDGF-R): −0.2% | Biochem EGFR % Inhibition (P.167) (EGFR): 17.2%

O=C1Nc2ccc(CCCl)cc2C1=Cc1cccc(Oc2cccc(C(F)(F)F)c2)c1 [10737/G11]
PDGF Kinase % Inhibition (P.119) (PDGF-R): 5.0% | Biochem EGFR % Inhibition (P.167) (EGFR): 2.8%

CCOc1ccc(C=C2C(=O)Nc3c(Br)cc(Br)c(C)c32)cc1 [10737/H02]
PDGF Kinase % Inhibition (P.119) (PDGF-R): −18.1% | Biochem EGFR % Inhibition (P.167) (EGFR): −17.2%

Cc1ccc(C=C2C(=O)Nc3c(Br)cc(Br)c(C)c32)c(C)c1 [10737/H03]
PDGF Kinase % Inhibition (P.119) (PDGF-R): −21.3% | Biochem EGFR % Inhibition (P.167) (EGFR): −22.6%

Cc1c(Br)cc(Br)c2c1C(=Cc1cc(F)ccc1F)C(=O)N2 [10737/H04]
PDGF Kinase % Inhibition (P.119) (PDGF-R): −21.3% | Biochem EGFR % Inhibition (P.167) (EGFR): −17.6%

Cc1c(Br)cc(Br)c2c1C(=Cc1cccc(F)c1F)C(=O)N2 [10737/H05]
PDGF Kinase % Inhibition (P.119) (PDGF-R): −6.2% | Biochem EGFR % Inhibition (P.167) (EGFR): −17.4%

COc1ccc(C=C2C(=O)Nc3c(Br)cc(Br)c(C)c32)cc1F [10737/H06]
PDGF Kinase % Inhibition (P.119) (PDGF-R): −1.8% | Biochem EGFR % Inhibition (P.167) (EGFR): −31.0%
